This test concerns T1, recombinant PDA (rPDA) from Variovorax sp. F1.
T1 construct: full-length gene product, 399 residues; 45 kDa band; pET28a NdeI/XhoI (N-terminal His tag), E. coli BL21 (DE3), HisTrap
In words: HPLC initial velocity, Michaelis-Menten fit. The test is classed as biochemical. Particulars: 50 mM Tris-HCl pH 7.5, 30 °C. From the text: HPLC initial velocity, Michaelis-Menten fit on recombinant PDA (rPDA) from Variovorax sp.

As a reminder, the Km is the substrate concentration at which the rate is half of its maximum. On to `Nc1nc2ncc(CNc3ccc(C(=O)N[C@@H](CCC(=O)O)C(=O)O)cc3)nc2c(=O)[nH]1` [folic acid], for which the Km (deamination to deaminofolic acid) was found to be 280 ± 60 µM.

In the case of `Nc1nc2ncc(CNc3ccc(C(=O)O)cc3)nc2c(=O)[nH]1` [pteroic acid], the Km (deamination to deaminopteroic acid) amounted to 1500 ± 600 µM.

The record behind these values is publication PMC9513972, “Carboxypeptidase G and pterin deaminase metabolic pathways degrade folic acid in Variovorax sp. F1” (BMC Microbiology, 2022).
